{
  "source": "patent US8318813B2",
  "about": "“Method of treating binge eating disorder” (LCS Group, LLC, priority 2007, dated 2012)",
  "key": {"[1]": {"system": "Patient with Comorbid Generalized Anxiety Disorder, Major Depression, and ADHD", "assay": "Case report Patient 6: VYVANSE added to PAXIL", "experimental": "The patient was maintained on PAXIL (paroxetine) 30 mg per day following a significant comorbid major depressive episode associated with anxiety symptoms, and a history consistent with Generalized Anxiety Disorder. […] However, after beginning a new job with more challenging responsibilities, the patient was unable to compensate for such deficits and a pattern of obsessive ruminations emerged, often involving work. In addition to perseverative and obsessive thinking, the patient experienced heightened anxiety and mild depressive symptoms, including fatigue, low mood, and amotivation, especially while at work. After discussing medication options and side effect concerns, VYVANSE was initiated to address underlying ADHD symptoms, which were felt to drive the patient's perseverative thinking, anxious ruminations, and low mood. […] PAXIL was maintained at 30 mg per day."}, "[2]": {"system": "patient with Binge Eating Disorder, Medication-Induced Cognitive Problems, and Fatigue", "assay": "Case report Example 5: VYVANSE added to existing regimen", "assay_type": "in vivo, human", "source_text": "The patient previously has been treated with therapy and has had multiple prior medication trials, either discontinued due to lack of efficacy or side effects, including ZOLOFT (sertraline), CELEXA (citalopram), PROZAC (fluoxetine), LEXAPRO (escitalopram), WELLBUTRIN SR (bupropion HCl), NORTRIPTYLINE, ATIVAN (lorazepam), ABILIFY (aripiprazole), RISPERDAL (risperidone), SEROQUEL (quetiapine), LYRICA (pregabalin), and RITALIN (methylphenidate). Selective serotonin reuptake inhibitors exacerbated binge eating symptoms and caused problematic weight gain. For treatment of depression with comorbid anxiety, binge-eating, and weight-gain related to binge eating symptoms, the patient was maintained on a medication regimen that included TOPAMAX (topiramate) 175 mg in the morning and 200 mg at night, LAMICTAL (lamotrigine) 200 mg in the morning, CYTOMEL (liothyronine) 25 mcg per day, KLONOPIN (clonazepam) 0.25 mg at bed time, and NEURONTIN (gabapentin) 600 mg at bedtime. […] Given prior poor response to a number of different classes of medication trials, off-label use of VYVANSE was initiated at 30 mg each morning to target a constellation of symptoms, including symptoms of major depression, binge-eating disorder, fatigue, and concentration problems. VYVANSE was maintained at 30 mg each morning for weeks before being discontinued due to adverse effects. […] However, there appeared to be no benefit on the patient's depressed mood, amotivation, and feelings of hopelessness.\nThis case exemplifies the clinical benefit of lisdexamfetamine dimesylate on binge-eating symptoms and potentially on weight-gain related to binging (body weight was not obtained), though longer-term treatment was cut short by adverse effects at the 30 mg dosage form. Given the number of failed prior trials, off-label use of VYVANSE was clinically indicated, especially given the severity of binge eating behavior."}, "[3]": {"system": "Patient with ADHD, Generalized Anxiety Disorder, and Obsessive-Compulsive Behavior", "assay": "Case report Example 3: VYVANSE", "assay_type": "in vivo, human", "source_text": "The patient is a non-geriatric adult diagnosed with a history of ADHD, inattentive type, and comorbid Generalized Anxiety Disorder, though had no prior treatment. Presenting ADHD symptoms included difficulty sustaining attention and attending to details, difficulty organizing tasks with tendencies toward avoidance, distractibility, and problems finishing tasks that have been initiated. Symptoms of Generalized Anxiety Disorder included frequent and intense ruminative worrying, feeling overly fatigued, muscle tension and intermittent problems with sleep. […] The patient was started on VYVANSE 30 mg in the morning, along with TRAZODONE 50 mg at bedtime. VYVANSE was maintained at 30 mg once daily in the morning for one week, followed by one week at 50 mg per day, and then 70 mg per day, taken in the morning. […] The patient maintained treatment on VYVANSE at 70 mg per day for 10 weeks; TRAZODONE 50 mg at bedtime was discontinued after 4 weeks as sleep patterns had sufficiently normalized. […] The patient previously felt little or no control around such worrying, ruminative behavior and speculated that it caused significant mental and even physical fatigue.\nStimulant medications have traditionally been associated with causing or worsening anxiety symptoms (for instance, being ‘anxiogenic’)."}, "[4]": {"system": "Patient with Comorbid Depressive Disorders and Binge Eating Behavior", "assay": "Case report Example 4: VYVANSE", "assay_type": "in vivo, human", "source_text": "The patient also endorsed symptoms of ADHD, inattentive type, primarily around problems with organizing tasks, procrastination of work activities, and problems completing projects, though such ‘inattention’ symptoms were considered as clinically less detrimental than feeling chronically depressed, lacking motivation or interest in work or social activities, feeling fatigued and sometimes guilty, and having gained weight over several years due to ‘emotional eating’ behavior. The patient had received therapy in the past to address depressive episodes and associated life stressors, with modest benefit. The patient also described a history of ‘emotional eating’ that could occur at any time of day though more often in the late afternoons or early evenings. Such ‘emotional eating’ was often triggered by stressful situations or events, accompanied by an urge to eat, and would typically lead to excess consumption of carbohydrate-based foods. In recent years, the patient reported having gained over 10% body weight and noted a general trend toward increasing emotional eating and binging behavior. More severe binges occurred at least several times per month over a stretch of several years, though were much less common than ‘emotional eating’ that was milder in nature and occurred nearly daily. […] The patient was maintained on VYVANSE for 10 weeks at 50 mg per day. […] Symptoms of emotional eating were improved in the evenings as well, with less than one per week on average as compared to most evenings previously. […] The organization and execution of work-related tasks improved during the course of treatment as well.\nThe patient also began a trend of weight loss on account of decreased emotional eating and binging. The patient's ADHD was also clinically relevant, which is the primary reason VYVANSE was chosen as the initial medication treatment, though it was not the reason for which evaluation and treatment was sought and of secondary importance with regard to symptoms causing the patient difficulty and concern. […] Binge-eating behavior, largely taking the form of ‘self-soothing’ eating activity with potentially serious risks in this patient insofar as it was causing steady increased weight gain to the point of obesity), responded remarkably well to treatment with VYVANSE."}, "[5]": {"conditions": "once per day dosing; cited from earlier work"}, "[6]": {"system": "Patient with Binge Eating Disorder and Major Depressive Disorders", "assay": "Case report Patient 2: lisdexamfetamine dimesylate monotherapy"}, "[7]": {"system": "Patient with Major Depressive Disorders and Binge Eating Disorder", "assay": "Case report Patient 1: lisdexamfetamine dimesylate added to ZOLOFT"}},
  "data": [
    {"compound": "Fc1ccc([C@@H]2CCNC[C@H]2COc2ccc3c(c2)OCO3)cc1", "note": "[PAXIL, paroxetine]", "values": [
      {"measurement": "depressive and anxiety symptoms", "setting": "[1]; PAXIL 30 mg per day", "value": "rapidly stabilized"}
    ]},
    {"compound": "CC1(C)O[C@@H]2[C@@H](CO[C@@]3(COS(N)(=O)=O)OC(C)(C)O[C@@H]23)O1", "note": "[TOPAMAX, topiramate]", "values": [
      {"measurement": "binge eating behavior", "setting": "[2]; TOPAMAX 175 mg in the morning and 200 mg at night, clinically insufficient", "value": "helped reduce"},
      {"measurement": "tolerability", "setting": "[2]; in vivo", "value": "poorly tolerated at higher doses due to cognitive side effects"}
    ]},
    {"compound": "CS(=O)(=O)O.CS(=O)(=O)O.C[C@@H](Cc1ccccc1)NC(=O)[C@@H](N)CCCCN", "note": "[lisdexamfetamine dimesylate, (2S)-2,6-diamino-N-[(1S)-1-methyl-2-phenylethyl]hexanamide dimethanesulfonate]", "values": [
      {"measurement": "compulsive ruminating and worrying", "setting": "[3]; 70 mg per day", "value": "highly significant improvement"},
      {"measurement": "ability to sustain attention and attend to details, organize and finish projects, process information", "setting": "[3]; 70 mg per day, compared to previous baseline function", "value": "significantly enhanced"},
      {"measurement": "inattention symptoms", "setting": "[3]; after 10 weeks at 70 mg per day", "value": "only mildly affected"},
      {"measurement": "'wear off' during treatment of Generalized Anxiety Disorder symptoms", "setting": "[3]; for the duration of the day", "value": "no problematic ‘wear off’"},
      {"measurement": "ADHD and Generalized Anxiety Disorder symptoms", "setting": "[3]; within the first week, 30 mg in the morning with TRAZODONE 50 mg at bedtime", "value": "positive effect"},
      {"measurement": "adverse effects", "setting": "[4]; 30 mg per day for two weeks, increased to 50 mg per day", "value": "without any adverse effects"},
      {"measurement": "emotional eating behavior in the afternoon", "setting": "[4]; 50 mg daily", "value": "abrupt and sustained cessation"},
      {"measurement": "depressive symptoms", "setting": "[4]; 10 weeks at 50 mg per day", "value": "significant amelioration"},
      {"measurement": "major binges", "setting": "[4]; at any point while taking VYVANSE, before at least several times per month", "value": "no reported major binges"},
      {"measurement": "organization and execution of work-related tasks", "setting": "[4]; during the course of treatment", "value": "improved"},
      {"measurement": "emotional eating in the evenings", "setting": "[4]; on average, compared to most evenings previously", "value": "less than one"},
      {"measurement": "weight lost", "setting": "[4]; over 2½ months of treatment", "value": "6-7 pounds"},
      {"measurement": "absolute binges per week", "setting": "[2]; 30 mg each morning", "value": "fewer"},
      {"measurement": "binge-eating days per week", "setting": "[2]; 30 mg each morning", "value": "fewer"},
      {"measurement": "depressed mood, amotivation, and feelings of hopelessness", "setting": "[2]; 30 mg each morning", "value": "no benefit"},
      {"measurement": "fatigue and concentration throughout the day", "setting": "[2]; 30 mg each morning", "value": "improvement"},
      {"measurement": "urge to binge", "setting": "[2]; 30 mg each morning, during the time of treatment", "value": "notably reduced"},
      {"measurement": "adverse effects leading to discontinuation", "setting": "[2]; 30 mg each morning, with TOPAMAX, LAMICTAL, CYTOMEL, KLONOPIN, NEURONTIN", "value": "excessive appetite suppression and visual blurring"},
      {"measurement": "adverse effect", "setting": "[1]; 30 mg per day for one week, titrated to 50 mg per day", "value": "without adverse effect"},
      {"measurement": "ADHD, Generalized Anxiety Disorder, and Major Depressive Disorder symptoms", "setting": "[1]; ensuing 9 weeks, with PAXIL 30 mg per day", "value": "improvement"},
      {"measurement": "weight loss", "setting": "[1]; over 2 months of treatment, VYVANSE 50 mg per day with PAXIL 30 mg per day", "value": "4-5%"},
      {"measurement": "mood, motivation and energy", "setting": "[1]; with PAXIL 30 mg per day", "value": "improved"},
      {"measurement": "worrying", "setting": "[1]; with PAXIL 30 mg per day", "value": "substantial reduction"},
      {"measurement": "time after administration for which significant effects have been demonstrated", "setting": "[5]", "value": "up to 12 hours"},
      {"measurement": "ADHD symptoms", "setting": "[6]; Patient 2", "value": "as effective as […] XR"},
      {"measurement": "triglyceride levels", "setting": "[6]; end of 5 weeks of treatment, 271 mg/dL prior to treatment", "value": 160, "unit": "mg/dL"},
      {"measurement": "binging episodes", "setting": "[6]; first 2 weeks of treatment, before at least two days per week", "value": "only once"},
      {"measurement": "depressive symptoms (depressed mood, interest level, sleep quality, physical fatigue)", "setting": "[6]; monotherapy, about 10 weeks", "value": "overall improvement"},
      {"measurement": "total body weight lost", "setting": "[6]; obese patient, about 10 weeks on lisdexamfetamine dimesylate (70 mg from day 3)", "value": "approximately 7%"},
      {"measurement": "binging episodes", "setting": "[6]; subsequent 8 weeks of treatment", "value": "stopped entirely"},
      {"measurement": "depressive symptoms", "setting": "[7]; 8 weeks of maintenance on 70 mg in addition to 100 mg ZOLOFT (sertraline)", "value": "full remission"},
      {"measurement": "binging days", "setting": "[7]; for the 8 weeks at 70 mg daily along with 100 mg ZOLOFT", "value": "no more than 3"},
      {"measurement": "reduction of binging eating days per month", "setting": "[7]; from approximately 12 or more to no more than 3 per month", "value": "approximately 75%"},
      {"measurement": "binge eating days per month", "setting": "[7]; while taking lisdexamfetamine dimesylate, before approximately 12 or more per month", "value": "no more than 3 per month"}
    ]}
  ]
}
